ChEMBL document CHEMBL3301472, “MMV Malaria Box HIV and cytotoxicity screening”

Assays:
Type in all cases: toxicity, cell-based
[1] = MMV: MTT Cytotoxicity Assay Day 7 pi of Assay #10 (NO washout), U87-CD4-CCR5 cells, % cell death @ 5mM compound; conditions: human, u87-cd4-ccr5, 5000 µM
[2] = MMV: MTT Cytotoxicity Assay Day 7 pi of Assay #11 (NO washout), U87-CD4-CXCR4 cells, % cell death @ 5mM compound; conditions: human, u87-cd4-cxcr4, 5000 µM
[3] = MMV: MTT Cytotoxicity Assay Day 7 pi of Assay #7 (compound washed out Day 1 pi), U87-CD4-CXCR4 cells, % cell death @ 5mM compound; conditions: human, u87-cd4-cxcr4, 5000 µM
[4] = MMV: MTT Cytotoxicity Assay Day 3 pi, U87-CD4-CXCR4 cells, % cell death @ 5mM compound; conditions: human, u87-cd4-cxcr4, 5000 µM
[5] = MMV: MTT Cytotoxicity Assay Day 7 pi of Assay #6 (compound washed out Day 1 pi), U87-CD4-CCR5 cells, % cell death @ 5mM compound; conditions: human, u87-cd4-ccr5, 5000 µM
[6] = MMV: MTT Cytotoxicity Assay Day 3 pi, U87-CD4-CCR5 cells, % cell death @ 5mM compound; conditions: human, u87-cd4-ccr5, 5000 µM

Row | SMILES | % Cell Death [1] | % Cell Death [2] | % Cell Death [3] | % Cell Death [4] | % Cell Death [5] | % Cell Death [6]
1 | OC1=C2C(=Nc3ccccc3SC2c2ccc(Br)cc2)c2ccccc21 (centres undefined) | 30 | 0 | 7 | 31 | -10 | 11
2 | CCOc1c(Cl)cc(CNCC(O)c2ccccc2)cc1OC (centres undefined) | 2 | -40 | -17 | 21 | 20 | 14
3 | O=C(NC(c1ccccc1)c1ccc2cccnc2c1O)c1ccccc1 (centres undefined) | 122 | 39 | -26 | 12 | 43 | -19
4 | CCOC(=O)c1cnc2c(C)cc(C)cc2c1Nc1ccc(OC)c(OC)c1 | 8 | -7 | 7 | 22 | 19 | 11
5 | COc1ccc(CNC2CCN(c3ccc(NC(=O)c4cccc(Cl)c4)cc3)CC2)cc1OC | 11 | -37 | -21 | -2 | 28 | -8
6 | COc1ccccc1N1CCN(C(CNS(=O)(=O)c2ccc(Cl)cc2)c2cccnc2)CC1 (centres undefined) | 130 | 105 | 81 | 94 | 83 | 109
7 | CC(=O)c1sc(NC(=O)Nc2ccc(C)cc2C)nc1C | 31 | 20 | -18 | 45 | -30 | -1
8 | Cc1nc2ccccc2c(O)c1CC=C(Cl)Cl | 26 | -3 | 20 | 30 | -2 | 19
9 | COc1ccc(CN2CCCC(C(=O)c3ccc(C(F)(F)F)cc3)C2)c(O)c1 (centres undefined) | 105 | 109 | 97 | 89 | 104 | 107
10 | COc1ccc(C2c3ccc4ccccc4c3Oc3ncn(CCCn4ccnc4)c(=N)c32)cc1OC (centres undefined) | -6 | -30 | -25 | 38 | -22 | 39
11 | O=c1c2c([nH]c3ccccc13)CCCC2 | -11 | -44 | -18 | 33 | 7 | 9
12 | COc1cc(OC)cc(C(=O)Nc2ccc(-c3nc4ccccc4[nH]3)cc2)c1 | 115 | 116 | 55 | 63 | 59 | 47
13 | O=C(Nc1ccc(CN2CCOCC2)cc1)c1ccc(-c2cc(Cl)ccc2Cl)o1 | 41 | 36 | -21 | 28 | -8 | -2
14 | O=C(CSc1ccc2nnc(-c3cccc(F)c3)n2n1)Nc1ccc2c(c1)OCO2 | 94 | 100 | 48 | 54 | 63 | 82
15 | COc1cccc(Nc2nc(N)c3ccccc3n2)c1.Cl | -2 | -77 | -5 | 22 | 13 | -31
16 | CCOc1ccccc1NC(=O)CN1CCN(C(=O)c2ccco2)CC1 | 37 | 36 | 38 | -22 | 13 | -66
17 | CCOC(=O)c1c(C)n(-c2ccc(Cl)cc2)c2ccc(OC(=O)C=Cc3ccccc3)cc12 | 2 | 51 | -5 | 26 | 4 | 18
18 | CCOc1ccc2c(c1)CN(Cc1ccc(Cl)cc1)CO2 | 13 | 20 | -14 | 32 | 11 | 8
19 | CC(C)(C)c1ccc(O)c(CNC2CCCCC2)c1 | 132 | 101 | 96 | 66 | 69 | 108
20 | COc1ccc(CCN2CCC(CN(C)Cc3cnn(-c4ccccc4)c3)CC2)cc1 | 110 | 93 | 16 | 53 | 68 | 33

Row | SMILES | % Cell Death [1] | % Cell Death [2] | % Cell Death [3] | % Cell Death [4] | % Cell Death [5] | % Cell Death [6]
21 | COc1ccc(CCNC(=O)c2cc(S(=O)(=O)N3CC(C)CC(C)C3)ccc2Sc2ccc(F)cc2)cc1OC (centres undefined) | 27 | 29 | 14 | 39 | -8 | 39
22 | O=C(NCCCN1CCC(N2CCCCC2)CC1)C1=Cc2cc(Br)ccc2OC1 | 14 | -57 | -28 | 10 | 31 | 52
23 | COc1ccc(N2CCN(C(CNC(=O)CC(C)(C)C)c3ccc4c(c3)OCO4)CC2)cc1 (centres undefined) | 44 | 37 | 22 | 38 | 6 | -2
24 | O=C(Nc1ccc(C23CC4CC(CC(c5ccccc5)(C4)C2)C3)cc1)c1cccs1 | 77 | 109 | 98 | 95 | 109 | 107
25 | CCOc1c(Cl)cc(CNC(C)C(O)c2ccccc2)cc1OC (centres undefined) | 98 | -28 | -15 | 22 | 0 | -4
26 | CCCCNc1nc(NC(C)(C)C)nc(NC(C)(C)C)n1 | -7 | -2 | 18 | 61 | 2 | -21
27 | CCOC(=O)c1cnc2ccc(CC)cc2c1O | 21 | 42 | -25 | 22 | 13 | 1
28 | Nc1ccc(-c2nc3cc(Cc4ccc5[nH]c(-c6ccc(N)cc6)nc5c4)ccc3[nH]2)cc1 | 98 | 110 | 82 | 57 | 69 | 88
29 | C=C(C)CCC(C)N1CCC(N2CCC(C(=O)NCCc3ccccc3)CC2)CC1 (centres undefined) | 11 | -11 | -27 | 3 | 23 | -11
30 | COc1ccc(-c2nonc2NC(=O)c2cccc(C)c2)cc1OC | -7 | -3 | -11 | 11 | -21 | 13
31 | FC(F)(F)c1ccc(Nc2nnnc3ccccc23)cc1 | 121 | 90 | -10 | 28 | 44 | 67
32 | Cc1ccc(N2C(=O)C3C(C2=O)C2(c4ccccc4)C(=O)C3(c3ccccc3)C(c3ccccc3)=C2c2ccccc2)cc1 (centres undefined) | 33 | -35 | 5 | 36 | 0 | -31
33 | Oc1ccc2ccccc2c1CNc1nc2ccccc2[nH]1 | 36 | 42 | -22 | 32 | -27 | 53
34 | COc1ccc2nc(C)cc(Nc3ccc(Cl)cc3)c2c1 | 121 | 117 | 90 | 100 | 103 | 106
35 | CCOC(=O)c1ccc2[nH]c(-c3ccccc3)cc(=O)c2c1 | 129 | 99 | 96 | 99 | 98 | 104
36 | O=C(NC1CCN(Cc2ccccc2)CC1)c1cc2nc(-c3ccc(Cl)s3)cc(C(F)(F)F)n2n1 | 46 | 11 | -15 | 31 | -12 | -2
37 | O=C(NC1CCCC1)c1ccc(N2CCC(NCc3cccc(C(F)(F)F)c3)CC2)cc1 | -4 | 6 | 7 | 35 | -1 | 4
38 | COc1ccc(-c2cc3c(nn2)-c2ccccc2C3=O)cc1 | 75 | 101 | 13 | 49 | 30 | 71
39 | CN(C)c1ccc(C=Cc2nc(=O)c3ccccc3o2)cc1 | 46 | 20 | 0 | 38 | -14 | 39
